# Source: patent US12655116B2, “Substituted isophthalic acid diamides” (Bayer Aktiengesellschaft, priority 2020, dated 2026)
# “And” between values parts separate entries of the source, which are not always exact repeats. Equal values may be shown once.
# Tests used:
# [1] = test system: ECHCG; experiment: Post-emergence herbicidal action against ECHCG; type: in vivo, Echinochloa crus-galli; conditions: Echinochloa crus-galli, 504 h, dosage 20 g/ha
# How it was run: (§1)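 Herbicidal action is a visual percentage rating (0% = as untreated control, 100% = plants dead) made roughly 3 weeks after treatment. Plants were grown in sandy loam in the greenhouse and treated at the one-leaf stage, 2 to 3 weeks post-sowing. Treatment was a foliar spray of wettable-powder or emulsion-concentrate formulations at 600 to 800 l/ha water plus 0.2% wetting agent.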
# [2] = test system: DIGSA; experiment: Pre-emergence herbicidal action against DIGSA; type: in vivo, Digitaria sanguinalis
# How it was run: (§2)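 Sandy loam pots, seeds covered with soil, then surface-treated with WP or EC formulations at 600–800 l/ha water plus 0.2% wetting agent. Greenhouse, 3 weeks. Percent damage vs untreated controls.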
# [3] = test system: PHBPU; experiment: Post-emergence herbicidal action against PHBPU; type: in vivo, Pharbitis purpurea; conditions: Ipomoea purpurea, 504 h
# How it was run: as §1
# [4] = test system: ALOMY; experiment: Pre-emergence herbicidal action against ALOMY; type: in vivo, Alopecurus myosuroides; conditions: Alopecurus myosuroides, 504 h, pre-emergence
# How it was run: as §2
# [5] = test system: AMARE; experiment: Pre-emergence herbicidal action against AMARE; type: in vivo, Amaranthus retroflexus
# How it was run: as §2
# [6] = test system: ALOMY; experiment: Post-emergence herbicidal action against ALOMY; type: in vivo, Alopecurus myosuroides; conditions: Alopecurus myosuroides, 504 h, dosage 20 g/ha, visual assessment about 3 weeks after treatment vs untreated controls
# How it was run: as §1
# [7] = test system: MATIN; experiment: Post-emergence herbicidal action against MATIN; type: in vivo, Matricaria inodora; conditions: Tripleurospermum inodorum, 504 h
# How it was run: as §1
# [8] = test system: SETVI; experiment: Pre-emergence herbicidal action against SETVI; type: in vivo, Setaria viridis; conditions: Setaria viridis, 504 h; for pest or weed control at 80 g/ha: dosage 80 g/ha
# How it was run: as §2
# [9] = test system: PHBPU; experiment: Pre-emergence herbicidal action against PHBPU; type: in vivo, Pharbitis purpurea; conditions: Ipomoea purpurea, 504 h, dosage 80 g/ha
# How it was run: as §2
# [10] = test system: ABUTH; experiment: Pre-emergence herbicidal action against ABUTH; type: in vivo, Abutilon theophrasti
# How it was run: as §2
# [11] = test system: ECHCG; experiment: Pre-emergence herbicidal action against ECHCG; type: in vivo, Echinochloa crus-galli
# How it was run: as §2
# [12] = test system: VERPE; experiment: Post-emergence herbicidal action against VERPE; type: in vivo, Veronica persica; conditions: Veronica persica, 504 h, 20 g/ha
# How it was run: as §1
# [13] = test system: DIGSA; experiment: Post-emergence herbicidal action against DIGSA; type: in vivo, Digitaria sanguinalis; conditions: Digitaria sanguinalis, 504 h
# How it was run: as §1
# [14] = test system: VIOTR; experiment: Pre-emergence herbicidal action against VIOTR; type: in vivo, Viola tricolor
# How it was run: as §2
# [15] = test system: POLCO; experiment: Pre-emergence herbicidal action against POLCO; type: in vivo, Polygonum convolvulus; conditions: Fallopia convolvulus, 504 h
# How it was run: as §2
# [16] = test system: VERPE; experiment: Pre-emergence herbicidal action against VERPE; type: in vivo, Veronica persica; conditions: Veronica persica, 504 h, dosage 80 g/ha
# How it was run: as §2
# [17] = test system: AMARE; experiment: Post-emergence herbicidal action against AMARE; type: in vivo, Amaranthus retroflexus; conditions: 20 g/ha, visual assessment about 3 weeks after treatment, 100% = plants have died, 0% = like control plants
# How it was run: as §1
# [18] = test system: VIOTR; experiment: Post-emergence herbicidal action against VIOTR; type: in vivo, Viola tricolor; conditions: Viola tricolor, 504 h
# How it was run: as §1
# [19] = test system: SETVI; experiment: Post-emergence herbicidal action against SETVI; type: in vivo, Setaria viridis
# How it was run: as §1
# [20] = test system: ABUTH; experiment: Post-emergence herbicidal action against ABUTH; type: in vivo, Abutilon theophrasti; conditions: visual assessment about 3 weeks after treatment vs untreated controls
# How it was run: as §1
# [21] = test system: AVEFA; experiment: Pre-emergence herbicidal action against AVEFA; type: in vivo, Avena fatua; conditions: Avena fatua, 504 h; 80 g/ha, pre-emergence
# How it was run: as §2
# [22] = test system: MATIN; experiment: Pre-emergence herbicidal action against MATIN; type: in vivo, Matricaria inodora
# How it was run: as §2
# [23] = test system: STEME; experiment: Pre-emergence herbicidal action against STEME; type: in vivo, Stellaria media
# From the text: Seeds of monocotyledonous and dicotyledonous weed plants and crop plants are laid out in sandy loam soil in wood-fiber pots and covered with soil. The compounds of the invention, formulated in the form of wettable powders (WP) or as emulsion concentrates (EC), are then applied to the surface of the covering soil in the form of an aqueous suspension or emulsion at a water application rate equivalent to 600 to 800 l/ha, with addition of 0.2% wetting agent. After the treatment, the pots are placed in a greenhouse and kept under good growth conditions for the trial plants. The damage to the test plants is scored visually after a test period of 3 weeks by comparison with untreated controls (herbicidal activity in percent (%): 100% activity=the plants have died, 0% activity=like control plants). […] The tables below illustrate, in an illustrative manner, the post-emergence herbicidal action of the compounds of the invention, the herbicidal activity being stated in percent.
# [24] = Digitaria sanguinalis, 504 h, dosage 80 g/ha
# [25] = 80 g/ha, scored visually after 3 weeks vs untreated controls (100% = plants have died, 0% = like control plants)
# [26] = Amaranthus retroflexus, 504 h, 20 g/ha, scored visually after 3 weeks vs untreated controls, 100% = plants have died, 0% = like control plants
# [27] = Amaranthus retroflexus, 504 h, 80 g/ha, scored visually after 3 weeks vs untreated controls, 100% = plants have died, 0% = like control plants
# [28] = Abutilon theophrasti, 504 h, 80 g/ha, scored visually after 3 weeks vs untreated controls (100% = plants have died, 0% = like control plants)
# [29] = Abutilon theophrasti, 504 h, dosage 20 g/ha
smiles,measurement,setting,value
CCNC(=O)c1c(C(F)F)ccc(C(=O)Nc2nnnn2CC)c1CC [Example 2-278],pest or weed control at 20 g/ha,[1],90%
same,pest or weed control at 20 g/ha,"[2]; Digitaria sanguinalis, 504 h, dosage 20 g/ha",100%
same,pest or weed control at 80 g/ha,[2]; [24],100%
same,pest or weed control at 5 g/ha,[3]; dosage 5 g/ha,80%
same,pest or weed control at 20 g/ha,[3]; dosage 20 g/ha,90%
same,pest or weed control at 80 g/ha,[4]; [25],90%
same,pest or weed control at 20 g/ha,"[4]; 20 g/ha, scored visually after 3 weeks, 100% = plants have died, 0% = like control plants",80%
same,pest or weed control at 20 g/ha,[5]; [26],100%
same,pest or weed control at 80 g/ha,[5]; [27],100%
same,pest or weed control at 20 g/ha,[6],80%
same,pest or weed control at 5 g/ha,[7]; dosage 5 g/ha,90%
same,pest or weed control at 20 g/ha,[7]; dosage 20 g/ha,90%
same,pest or weed control at 80 g/ha,[8],100%
same,pest or weed control at 80 g/ha,[9],90%
same,pest or weed control at 80 g/ha,[10]; [28],100%
same,pest or weed control at 20 g/ha,"[10]; Abutilon theophrasti, 504 h, dosage 20 g/ha, scored visually after 3 weeks vs untreated controls, 100% = plants have died, 0% = like control plants, read-out: Pre-emergence action against ABUTH (herbicidal activity in percent)",100%
same,pest or weed control at 80 g/ha,"[11]; Echinochloa crus-galli, 504 h, 80 g/ha",100%
same,pest or weed control at 20 g/ha,[12],100%
same,pest or weed control at 5 g/ha,[13]; 5 g/ha,90%
same,pest or weed control at 20 g/ha,[13]; 20 g/ha,90%
same,pest or weed control at 20 g/ha,"[14]; Viola tricolor, 504 h, dosage 20 g/ha",100%
same,pest or weed control at 80 g/ha,"[14]; Viola tricolor, 504 h, dosage 80 g/ha",100%
same,pest or weed control at 20 g/ha,[15]; dosage 20 g/ha,80%
same,pest or weed control at 80 g/ha,[15]; dosage 80 g/ha,80%
same,pest or weed control at 80 g/ha,[16],100%
same,pest or weed control at 20 g/ha,"[17]; Amaranthus retroflexus, 504 h",100%
same,pest or weed control at 5 g/ha,[18]; 5 g/ha,90%
same,pest or weed control at 20 g/ha,[18]; 20 g/ha,90%
same,pest or weed control at 5 g/ha,"[19]; Setaria viridis, 504 h, dosage 5 g/ha",80%
same,pest or weed control at 20 g/ha,"[19]; Setaria viridis, 504 h, dosage 20 g/ha",90%
same,pest or weed control at 5 g/ha,"[20]; Abutilon theophrasti, 504 h, dosage 5 g/ha",80%
same,pest or weed control at 20 g/ha,[20]; [29],90%
same,pest or weed control at 80 g/ha,[21],90%
same,pest or weed control at 20 g/ha,"[22]; Tripleurospermum inodorum, 504 h, dosage 20 g/ha",100%
same,pest or weed control at 80 g/ha,"[22]; Tripleurospermum inodorum, 504 h, dosage 80 g/ha",100%
CCc1c(C(=O)Nc2ncnn2C)ccc(C(F)(F)F)c1C(=O)NC1CC1 [Example 4-212],Pre-emergence action against DIGSA in %,[2]; dosage 20 g/ha,80%
same,Pre-emergence action against DIGSA in %,[2]; dosage 80 g/ha,90%
same,Pre-emergence action against STEME in %,[23]; dosage 80 g/ha,90%
same,Pre-emergence action against AMARE in %,"[5]; 20 g/ha, scored visually after 3 weeks vs untreated controls, 100% = plants have died, 0% = like control plants",90%
same,Pre-emergence action against AMARE in %,[5]; [25],90%
same,Pre-emergence action against ABUTH (herbicidal activity),[10]; [25],90%
same,Pre-emergence action against ECHCG in %,[11]; 80 g/ha,80%
same,Pre-emergence action against VIOTR in %,[14]; dosage 80 g/ha,90%
same,Post-emergence action at 20 g/ha against AMARE in %,[17],80%
same,Post-emergence action against SETVI in %,[19]; dosage 20 g/ha,80%
same,Post-emergence action against ABUTH in %,[20]; dosage 20 g/ha,80%
same,Pre-emergence action against MATIN in %,[22]; dosage 20 g/ha,80%
same,Pre-emergence action against MATIN in %,[22]; dosage 80 g/ha,80% and 90%
CC(=O)NC(=O)c1c(C(F)(F)F)ccc(C(=O)Nc2nnc(C)o2)c1Cl [Example 6-252],pest or weed control at 80 g/ha,[2]; [24],90%
same,pest or weed control at 320 g/ha,"[2]; Digitaria sanguinalis, 504 h, dosage 320 g/ha",90%
same,pest or weed control at 320 g/ha,"[23]; Stellaria media, 504 h, dosage 320 g/ha",90%
same,pest or weed control at 20 g/ha,[5]; [26],80%
same,pest or weed control at 80 g/ha,[5]; [27],90%
same,pest or weed control at 320 g/ha,"[5]; Amaranthus retroflexus, 504 h, 320 g/ha, scored visually after 3 weeks, 100% = plants have died, 0% = like control plants",90%
same,pest or weed control at 80 g/ha,[8],90%
same,pest or weed control at 320 g/ha,[8]; dosage 320 g/ha,90%
same,pest or weed control at 80 g/ha,[10]; [28],80%
same,pest or weed control at 320 g/ha,"[10]; Abutilon theophrasti, 504 h, Dosage: 320 g/ha, scored visually after 3 weeks, 100% = plants have died, 0% = like control plants",90%
same,pest or weed control at 320 g/ha,"[11]; Echinochloa crus-galli, 504 h, 320 g/ha",90%
same,pest or weed control at 20 g/ha,[20]; [29],80%
same,pest or weed control at 80 g/ha,"[20]; Abutilon theophrasti, 504 h, dosage 80 g/ha",100%
